Patent US20020172967A1, “Identification of non-covalent complexes by mass spectrometry” (priority 2001, published 2002)
Entries after “also recorded” stand apart in the source; their conditions may differ. Where two headings read alike, the source gives them in different places.

Legend:
[1] = molecular target: T1, stromelysin (catalytic domain) (Homo sapiens, UniProt P08254); test: ESI-MS detection of noncovalent complexes and competition experiments with stromelysin; assay type: binding; conditions: for specificity of association (no greater than 1:1 complex): ESI-MS; for competition of two ligands for the same binding site: pairwise ESI-MS experiment, ternary complex present or absent; for competitive / non-competitive binder or non-binder: ESI-MS competition experiments, S1′ site, same binding site as 4-phenylpyridine
T1 construct: The catalytic domain of stromelysin was prepared in accordance with well-known known procedures; made in house
T1 sequence (P08254 100-272 limits assumed): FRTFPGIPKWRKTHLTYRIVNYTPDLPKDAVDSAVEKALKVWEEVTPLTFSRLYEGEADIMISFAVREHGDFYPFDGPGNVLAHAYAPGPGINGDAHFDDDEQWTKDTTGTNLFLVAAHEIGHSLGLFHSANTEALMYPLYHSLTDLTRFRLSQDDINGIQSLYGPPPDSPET
Experimental: FIGS. 7A-7E are ligands that are known to bind in the S1′ site on stromelysin. […] The relative dissociation constants for each for each ligand were measured to optimize the amide. Competition experiments were also performed to assure that each ligand bound in the same binding site as 4-phenylpyridine. [drawing 41]
Acetohydroxamic acid was used as the ligand for the first binding site of stromelysin. It has been reported that complexation of zinc with acetohydroxamic acid prevents autocatalytic degradation of the protein.
The ESI-MS measurements were recorded on a Perkin Elmer Sciex API III mass spectrometer. Samples were introduced via […] i.d. fused silica capillary from a 50 μL syringe using a Harvard Apparatus Model 22-syringe pump at a flow rate of 1.500 μL/min. The orifice potential was set between 55 and 65V, and the interface heater was at 56° C. Mass spectra were obtained by averaging a sufficient number of scans to obtain adequate signal to noise.
The sample was analyzed by ESI-MS.
The catalytic domain of stromelysin was prepared in accordance with well-known known procedures. […] The stromelysin used for this study was in a solution of 20 mM Tris buffer, 5 mM CaCl2, 0.02% NaN3 at a pH of 7.5 and at a concentration of either 19.6 mg/mL or 21.7 mg/mL. Acetohydroxamic acid was used for the zinc-binding site.
The second step in the design process was the identification of a second ligand that binds to the target stromelysin at a site different from the binding site of acetohydroxamic acid. This may be accomplished by screening compounds for their ability to bind stromelysin in the presence of saturating amounts of acetohydroxamic acid.
The next step in the design process was to construct a ternary complex of the target stromelysin, the first ligand and the second ligand. This was accomplished by exposing the stromelysin target to the two ligands under conditions that result in complex formation.

[2] = molecular target: T2, protein tyrosine phosphatase 1b (PTP1b) (Homo sapiens, UniProt P18031); test: ESI-MS detection of 1:1 noncovalent complex with PTP1b; assay type: binding; conditions: mass spectrometry; for formation of specific complex with PTP1b: 1:1 noncovalent complex
T2 sequence (P18031 1-435): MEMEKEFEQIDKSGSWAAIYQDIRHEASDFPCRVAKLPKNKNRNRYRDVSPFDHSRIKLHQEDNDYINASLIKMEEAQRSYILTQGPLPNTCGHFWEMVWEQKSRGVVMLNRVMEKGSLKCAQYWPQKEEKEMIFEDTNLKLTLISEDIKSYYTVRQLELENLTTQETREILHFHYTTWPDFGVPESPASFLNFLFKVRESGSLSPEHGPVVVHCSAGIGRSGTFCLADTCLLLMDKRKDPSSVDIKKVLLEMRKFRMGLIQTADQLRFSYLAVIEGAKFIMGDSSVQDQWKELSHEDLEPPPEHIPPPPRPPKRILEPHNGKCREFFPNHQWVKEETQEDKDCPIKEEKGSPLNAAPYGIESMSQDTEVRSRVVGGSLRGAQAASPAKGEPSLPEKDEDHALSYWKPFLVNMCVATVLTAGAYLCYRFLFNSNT
Experimental: (§1) The candidate target binding ligands shown below were tested by mass spectrometry in a manner similar to Example 1 to determine whether any of the fragments bound specifically to the target biomolecule, protein tyrosine phosphatase 1b (PTP1b), observed 1:1 noncovalent complex. Fragment molecules were chosen based on either their ability to mimic the stabilized transition state of PTP1b with a tyrosine phosphate ester or based on their known or suspected ability to inhibit cysteine proteases and the homology or similarities in the active sites PTP1b and cysteine proteases. The transition state mimics included in the library are derivatives of moniliformin and deltic acid. Each of these compounds contain a planar arrangement of oxygen atoms around and electrophilic center, similar to the planar arrangement of oxygen atoms around an electrophilic phosphorous in the stabilized transition state complex of phosphotyrosine and PTP1b. Also contained in the library were various examples of some fragment molecules containing functional groups known or suspected to interact with an active site cysteine of cysteine proteases. Included in this example are aldehydes, α-ketoacids, boronic acids, and […]. Other fragment molecules could contain functional groups such as α-ketoesters, sulfonyl fluorides, haloketones, azabenzenes, and disulfides and other fragment molecules that contain functional groups known or suspected to react with mercaptans. […] The ability of these fragments to block the function of PTP1b was determined by a chromagenic substrate assay.

[3] = molecular target: T3, PTP1b (Homo sapiens, UniProt P18031); test: chromagenic substrate assay of PTP1b function; assay type: biochemical; conditions: titration curves, FIG. 4
T3 sequence (P18031 1-435): T2 sequence (P18031 1-435)
Experimental: FIG. 4 is a graph of titration curves used to determine the IC50 of the squaric acid fragment 8A and moniliformin.
as §1

SMILES | specificity of association (no greater than 1:1 complex) [1] | competition of two ligands for the same binding site [1] | further results
N#Cc1ccc(NC(=O)Cc2ccccc2)cc1 [N-(4-cyanophenyl)-2-phenylacetamide] | bind to the protein specifically | do not compete for the same binding site on the protein | 
O=CCCc1ccccc1 [Compound 8D] |  |  | formation of specific complex with PTP1b [2]: formed specific complexes with PTP1b; IC50 [3]: did not have the ability to block function
CC(=O)NO [acetohydroxamic acid] | specific | do not compete for the same binding site on a protein | 
O=c1c(O)c(-c2ccccc2)c1=O [Compound 8A] |  |  | formation of specific complex with PTP1b [2]: formed specific complexes with PTP1b; Kd ([2]; read-out: binding constant (Kd)): 25 µM; IC50 ([3]; read-out: IC50): 60 µM
COc1ccc(C(=O)NCc2ccccc2)cc1 [Ligand 7G] |  |  | competitive / non-competitive binder or non-binder [1]: competitive binders
c1ccc(-c2ccncc2)cc1 [Ligand 7B] |  |  | competitive / non-competitive binder or non-binder [1]: non-competitive binders
N#Cc1ccc(-c2ccc(O)cc2)cc1 [4-(4′-cyanophenyl)-phenol] | specific | do not compete for the same binding site on a protein | 
c1ccc(-c2ccncc2)cc1 [4-phenylpyridine] | specific; also recorded: bind to the protein specifically |  | 
O=c1cc(O)c1=O [moniliformin] |  |  | IC50 ([3]; read-out: IC50): 12 µM
COc1ccc(C(=O)Nc2ccccc2)cc1 [4-methoxy-N-phenylbenzamide] | specific | compete for the same binding site on the protein | 
